Earlier results on 1 compound are cited in patent US20120087953A1, “PHARMACEUTICAL COMPOSITIONS OF ACTIVE PHARMACEUTICAL INGREDIENT COMPRISING SULPHONYLUREA MOIETY WITH EXCELLENT DISSOLUTION PROPERTIES” (LEK PHARMACEUTICALS D.D., priority 2009, published 2012).

For this series the following is noted: acidic medium, 37° C.

On to `CCC1=C(C)CN(C(=O)NCCc2ccc(S(=O)(=O)NC(=O)N[C@H]3CC[C@H](C)CC3)cc2)C1=O` [glimepiride], for which the solubility result was “less than 0.001 mg/mL”.
